Earlier results, collected in US20070082064A1, “Nutritional or dietary supplement for the treatment of macular degeneration” (priority 2005, published 2007).

## vitamin E
Daily dose of 200 IU per day
  risk of death: no increased risk of death
Daily doses of 400 IU or more, meta-analysis of 19 trials, more than 136,000 patients
  risk of death higher than among those taking placebos: about 10%
